The nature of data set [1]: Solution stability under photo irradiation (optical stability). It counts as physicochemical. As to conditions: 0.25 mM in 50 mM MES buffer (pH 6.5), under fluorescent lamp, temporal change in absorbance at 650 nm; FIG. 1. The protocol: Solution stability under photo irradiation was tested as follows. Each sample solution of Compound A, B, C and D according to the invention and DA-67 was prepared with 50 mM MES buffer (pH 6.5) in the concentration of 0.25 mM. Temporal change in the absorbance at 650 nm of each reagent prepared placed under fluorescent lamp was monitored.

The nature of data set [2]: Accelerated stability in the quantification of UA (uric acid). As to conditions: stored at 40° C., day 7, 14, 21 and 28; low concentration region of UA (2.1 mg/dL); FIG. 14. It counts as physicochemical. The protocol:
At day 7, 14, 21 and 28, the reagents (wrapped with aluminum foil) stored in a chamber at 40° C. were taken out and brought back to room temperature. Also, the samples were taken out of a freezing chamber and naturally thawed at room temperature. They were mixed on a vortex mixer and used for the measurement. The absorbance was measurement similarly to the measurement of the linearity.

The conditions of data set [3]: general statement on the conventional reagent; cited from earlier work.

The values that follow come from US10787571B2, “Oxidation color developable compound and oxidation color development reagent” (DOJINDO LABORATORIES, priority 2017, dated 2020).

Each structure is given as a SMILES string.

In the case of `CN(C)c1ccc2c(c1)Sc1cc(N(C)C)ccc1N2C(=O)NCC(=O)NCC(=O)O` [Compound D], the optical stability entry in data set [1] is on record as “DA-67 ≃Compound B according to the invention≈Compound C according to the invention<Compound A according to the invention<Compound D according to the invention”. Further, the “order of accelerated stabilities” value in data set [2] is reported as “Compound A according to the invention>Compound D according to the invention≈DA-67>Compound B according to the invention>Compound C according to the invention”.
For `CN(C)c1ccc2c(c1)Sc1cc(N(C)C)ccc1N2C(=O)NCCS(=O)(=O)O` [Compound A], in that order: “DA-67 ≃Compound B according to the invention≈Compound C according to the invention<Compound A according to the invention<Compound D according to the invention” and “Compound A according to the invention>Compound D according to the invention≈DA-67>Compound B according to the invention>Compound C according to the invention”.
Consider `CN(C)c1ccc2c(c1)Sc1cc(N(C)C)ccc1N2C(=O)NCC(=O)O` [DA-67, reference compound], for which the “solubility in water (stated drawback)” value in data set [3] is reported as “poor solubility in water”. In data set [1], the optical stability result is reported as “DA-67 ≃Compound B according to the invention≈Compound C according to the invention<Compound A according to the invention<Compound D according to the invention”. In addition, the “order of accelerated stabilities” value in data set [2] is recorded as “Compound A according to the invention>Compound D according to the invention≈DA-67>Compound B according to the invention>Compound C according to the invention”.
Take `CN(C)c1ccc2c(c1)Sc1cc(N(C)C)ccc1N2C(=O)NCCC(=O)O` [Compound B]: in data set [1], the optical stability entry was “DA-67 ≃Compound B according to the invention≈Compound C according to the invention<Compound A according to the invention<Compound D according to the invention”. Also, the “order of accelerated stabilities” value in data set [2] was “Compound A according to the invention>Compound D according to the invention≈DA-67>Compound B according to the invention>Compound C according to the invention”.
